Our source for the molar enthalpy values is the NIST ThermoML archive (doi:10.1016/j.jct.2009.05.019).

A short description of this data set: molar enthalpy of vaporization or sublimation. To be noted: 298.15 K; Crystal; Calvet microcalorimetry.

± gives the expanded uncertainty stated by the source.

With `c1ccc2c(c1)sc1ccccc12` [dibenzothiophene], the molar enthalpy was 22.3 ± 0.239 kcal/mol.
